Biological target: T1, IL-17A/A (Homo sapiens, UniProt Q16552)
T1 construct: purchased Genscript Z03228
T1 sequence (Q16552 24-155): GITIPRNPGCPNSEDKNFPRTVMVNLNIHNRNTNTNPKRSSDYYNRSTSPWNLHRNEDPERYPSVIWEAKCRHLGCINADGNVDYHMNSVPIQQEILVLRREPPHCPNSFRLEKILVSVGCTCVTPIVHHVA
Assay: HEK-Blue IL-17A/A inhibition assay (SEAP reporter)
Format: cell-based
Details: HEK-Blue cells (HEK 293 expressing IL-17RA, IL-17RC, Act1); IL-17A/A stimulation; 20 hours; SEAP read at A630; 4-parameter fit
Outline: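 IC50 from a 4-parameter fit of SEAP signal (Quanti-Blue, A630) after 20 h co-incubation of compound and IL-17A/A. Reporter line: HEK 293 expressing IL-17RA, IL-17RC and Act1 with NFκB-SEAP; compound top final 10, 1 or 0.3 uM, DMSO 0.1% final.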

Compound	IC50
Cc1cc(NC(=O)[C@@H](NC(=O)c2ccnn2C(C)C)C(C2CC2)C2CC2)c(F)cc1C(C)C(=O)NC(C(N)=O)C(F)(F)F (some centres unmarked) [Compound 178]	0.1 to 1 µM
CC(C)n1nccc1C(=O)N[C@H](C(=O)Nc1ccc([C@H](C)C(=O)N(CC(F)(F)F)C2CCOC2)cc1F)C(C1CC1)C1CC1 (some centres unmarked) [Compound 153]	0.1 to 1 µM
CCn1nccc1C(=O)N[C@H](C(=O)Nc1cc(C)c(C(C)C(=O)N(C)CC(F)(F)F)cc1F)C(C1CC1)C1CC1 (single isomer, unassigned) [Compound 77]	0.1 to 1 µM
CC(C)n1nccc1C(=O)N[C@H](C(=O)Nc1ccc([C@H](C)C(=O)N2CC(F)CC2C(F)(F)F)cc1F)C(C1CC1)C1CC1 (stereo partly drawn) [Compound 47, N-((2S)-1,1-dicyclopropyl-3-((2-fluoro-4-((2S)-1-(4-fluoro-2-(trifluoromethyl)pyrrolidin-1-yl)-1-oxopropan-2-yl)phenyl)amino)-3-oxopropan-2-yl)-1-isopropyl-1H-pyrazole-5-carboxamide]	< 0.1 µM
CC(C)n1nccc1C(=O)N[C@H](C(=O)Nc1ccc([C@H](C)C(=O)NCC(F)(F)F)cc1F)C1CCC(F)(F)CC1 [Compound 50, N-((S)-1-(4,4-difluorocyclohexyl)-2-((2-fluoro-4-((S)-1-oxo-1-((2,2,2-trifluoroethyl)amino)propan-2-yl)phenyl)amino)-2-oxoethyl)-1-isopropyl-1H-pyrazole-5-carboxamide]	0.1 to 1 µM
CCc1nonc1C(=O)N[C@H](C(=O)Nc1cc(C)c(C(C)C(=O)N(C)CC(F)(F)F)cc1F)C(C1CC1)C1CC1 (some centres unmarked) [Compound 205]	< 0.1 µM
CCN(CC(F)(F)F)C(=O)C(C)c1ccc(NC(=O)[C@@H](NC(=O)c2ccnn2CC)C2CCCCCC2)c(F)c1 (single isomer, unassigned) [Compound 69]	> 1 µM
CC(CN1CCOCC1)n1nccc1C(=O)N[C@H](C(=O)Nc1ccc([C@H](C)C(=O)NCC(F)(F)F)cc1F)C(C1CC1)C1CC1 (single isomer, unassigned) [Compound 93]	0.1 to 1 µM
CC(C)n1nccc1C(=O)N[C@H](C(=O)Nc1ccc([C@H](C)C(=O)N2C[C@@H](F)[C@@H](F)C2)cc1F)C(C1CC1)C1CC1 [Compound 40, N-((S)-1,1-dicyclopropyl-3-((4-((S)-1-((3S,4R)-3,4-difluoropyrrolidin-1-yl)-1-oxopropan-2-yl)-2-fluorophenyl)amino)-3-oxopropan-2-yl)-1-isopropyl-1H-pyrazole-5-carboxamide]	0.1 to 1 µM
CCn1nccc1C(=O)N[C@H](C(=O)Nc1ccc([C@H](C)C(=O)N2CCC[C@H]2C(F)(F)F)cc1F)C(C1CC1)C1CC1 [Compound 11, N-((S)-1,1-dicyclopropyl-3-((2-fluoro-4-((S)-1-oxo-1-((S)-2-(trifluoromethyl)pyrrolidin-1-yl)propan-2-yl)phenyl)amino)-3-oxopropan-2-yl)-1-ethyl-1H-pyrazole-5-carboxamide]	< 0.1 µM
CC(C(=O)NCC(F)(F)F)c1cc(F)c(NC(=O)[C@@H](NC(=O)c2ccnn2C(C)C)C(C2CC2)C2CC2)cc1C(N)=O (single isomer, unassigned) [Compound 117]	0.1 to 1 µM
Cc1cc(NC(=O)[C@@H](NC(=O)c2nonc2C)C2CCC(F)(F)CC2)c(F)cc1C(C)C(=O)N(C)CC(F)(F)F (some centres unmarked) [Compound 198]	0.1 to 1 µM
CCn1nccc1C(=O)N[C@H](C(=O)Nc1ccc(CC(=O)NCC(F)(F)F)cc1F)C1CCCCCC1 [Compound 2, (S)-N-(1-cycloheptyl-2-((2-fluoro-4-(2-oxo-2-((2,2,2-trifluoroethyl)amino)ethyl)phenyl)amino)-2-oxoethyl)-1-ethyl-1H-pyrazole-5-carboxamide]	0.1 to 1 µM
CC(C(=O)NCC(F)(F)F)c1cc(F)c(NC(=O)[C@@H](NC(=O)c2ccnn2C(C)C)C(C2CC2)C2CC2)cc1C1CC1 (single isomer, unassigned) [Compound 126]	0.1 to 1 µM
CC(C)n1nccc1C(=O)N[C@H](C(=O)Nc1ccc([C@H](C)C(=O)N2CCOCCC2C(F)(F)F)cc1F)C(C1CC1)C1CC1 (stereo partly drawn) [Compound 45, N-((2S)-1,1-dicyclopropyl-3-((2-fluoro-4-((2S)-1-oxo-1-(5-(trifluoromethyl)-1,4-oxazepan-4-yl)propan-2-yl)phenyl)amino)-3-oxopropan-2-yl)-1-isopropyl-1H-pyrazole-5-carboxamide]	0.1 to 1 µM
CC(C)n1nccc1C(=O)N[C@H](C(=O)Nc1ccc([C@H](C)C(=O)N2C(C(N)=O)CCC2C(F)(F)F)cc1F)C(C1CC1)C1CC1 (single isomer, unassigned) [Compound 148]	> 1 µM
CC(C)c1nonc1C(=O)N[C@H](C(=O)Nc1cc(C(F)(F)F)c(C(C)C(=O)NCC(F)(F)F)cc1F)C(C1CC1)C1CC1 (some centres unmarked) [Compound 238]	0.1 to 1 µM
CCn1nccc1C(=O)N[C@H](C(=O)Nc1cc(OC)c(C(C)C(=O)N(C)CC(F)(F)F)cc1F)C(C1CC1)C1CC1 (some centres unmarked) [Compound 174]	< 0.1 µM

Compound	IC50
CCNC(=O)C(C)c1cc(F)c(NC(=O)[C@@H](NC(=O)c2ccnn2CC)C(C2CC2)C2CC2)cc1C (some centres unmarked) [Compound 244]	> 1 µM
CCn1nccc1C(=O)N[C@H](C(=O)Nc1ccc([C@H](C)C(=O)N(C)CC(F)(F)F)cc1F)C1CCC2(CC1)CC2 [Compound 75, 1-ethyl-N-((S)-2-((2-fluoro-4-((S)-1-(methyl(2,2,2-trifluoroethyl)amino)-1-oxopropan-2-yl)phenyl)amino)-2-oxo-1-(spiro[2.5]octan-6-yl)ethyl)-1H-pyrazole-5-carboxamide]	0.1 to 1 µM
CC(C)n1nccc1C(=O)N[C@H](C(=O)Nc1ccc([C@H](C)C(=O)N2C[C@H](F)[C@@H](F)C2)cc1F)C(C1CC1)C1CC1 [Compound 38, N-((S)-1,1-dicyclopropyl-3-((4-((S)-1-((3S,4S)-3,4-difluoropyrrolidin-1-yl)-1-oxopropan-2-yl)-2-fluorophenyl)amino)-3-oxopropan-2-yl)-1-isopropyl-1H-pyrazole-5-carboxamide]	0.1 to 1 µM
CC(C)n1nccc1C(=O)N[C@H](C(=O)Nc1ccc([C@H](C)C(=O)NC(C2CCOC2)C(F)(F)F)cc1F)C(C1CC1)C1CC1 (single isomer, unassigned) [Compound 151]	0.1 to 1 µM
Cc1cc(NC(=O)[C@@H](NC(=O)c2ccnn2C)C2CCC(F)(F)CC2)c(F)cc1C(C)C(=O)NCC(F)(F)F (some centres unmarked) [Compound 215]	> 1 µM
CC(=O)NC(C(=O)NCC(F)(F)F)c1ccc(NC(=O)[C@@H](NC(=O)c2ccnn2C(C)C)C(C2CC2)C2CC2)c(F)c1 (some centres unmarked) [Compound 190]	> 1 µM
CC1CN(C(=O)[C@@H](C)c2ccc(NC(=O)[C@@H](NC(=O)c3ccnn3C(C)C)C(C3CC3)C3CC3)c(F)c2)C(C(F)(F)F)CO1 (stereo partly drawn) [Compound 135, N-((2S)-1,1-dicyclopropyl-3-((2-fluoro-4-((2S)-1-(2-methyl-5-(trifluoromethyl)morpholino)-1-oxopropan-2-yl)phenyl)amino)-3-oxopropan-2-yl)-1-isopropyl-1H-pyrazole-5-carboxamide]	0.1 to 1 µM
CCOC(=O)CC(NC(=O)[C@@H](C)c1ccc(NC(=O)[C@@H](NC(=O)c2ccnn2C(C)C)C(C2CC2)C2CC2)c(F)c1)C(F)(F)F (stereo partly drawn) [Compound 61, ethyl 3-((S)-2-(4-((S)-3,3-dicyclopropyl-2-(1-isopropyl-1H-pyrazole-5-carboxamido)propanamido)-3-fluorophenyl)propanamido)-4,4,4-trifluorobutanoate]	< 0.1 µM
C[C@H](C(=O)N(C)CC(F)(F)F)c1ccc(NC(=O)[C@@H](Nc2nccn3nccc23)C(C2CC2)C2CC2)c(F)c1 [Compound 106, (S)-3,3-dicyclopropyl-N-(2-fluoro-4-((S)-1-(methyl(2,2,2-trifluoroethyl)amino)-1-oxopropan-2-yl)phenyl)-2-(pyrazolo[1,5-a]pyrazin-4-ylamino)propenamide]	> 1 µM
Cc1cc(NC(=O)[C@@H](NC(=O)c2ccnn2C(C)C)C(C2CC2)C2CC2)c(F)cc1C(C)C(=O)NC(C1CCOC1)C(F)(F)F (some centres unmarked) [Compound 209]	< 0.1 µM
CC(C)C(C(=O)NCC(F)(F)F)c1ccc(NC(=O)[C@@H](NC(=O)c2ccnn2C(C)C)C(C2CC2)C2CC2)c(F)c1 (single isomer, unassigned) [Compound 129]	> 1 µM
Cc1cc(NC(=O)[C@@H](NC(=O)c2ccnn2C(C)C)C2CCC(F)(F)CC2)c(F)cc1C(C)C(=O)N(C)CC(F)(F)F (some centres unmarked) [Compound 207]	< 0.1 µM
CC(C)n1nccc1C(=O)N[C@H](C(=O)Nc1ccc(C(CO)C(=O)NCC(F)(F)F)cc1F)C(C1CC1)C1CC1 (stereo partly drawn) [Compound 168, N-((2S)-1.1-dicyclopropyl-3-((2-fluoro-4-(3-hydroay-1-oxo-11-((2,2,2-trifluoroethyl)amino)propan-2-yl)phenyl)amino)-3-oxopropan-2-yl)-1-isopropyl-1H-pyrazole-5-carboxamide]	0.1 to 1 µM
CCOC(=O)Nc1cc(NC(=O)[C@@H](NC(=O)c2ccnn2C(C)C)C(C2CC2)C2CC2)c(F)cc1C(C)C(=O)NCC(F)(F)F (single isomer, unassigned) [Compound 158]	< 0.1 µM
CCn1nccc1C(=O)N[C@H](C(=O)Nc1cc(C)c(C(C)C(=O)NCC(F)(F)F)cc1F)C1CCC(F)(F)CC1 (some centres unmarked) [Compound 217]	> 1 µM
Cc1cc(NC(=O)[C@@H](NC(=O)c2nonc2C)C(C2CC2)C2CC2)c(F)cc1C(C)C(=O)NCC(F)(F)F (some centres unmarked) [Compound 210]	0.1 to 1 µM
CCn1nccc1C(=O)N[C@H](C(=O)Nc1cc(C)c(C(C)C(=O)NCC(F)(F)F)cc1F)C(C1CC1)C1CC1 (some centres unmarked) [Compound 236]	< 0.1 µM
